Data as given in US20240391862A1, “(1,4,5-TRISUBSTITUTED-1H-PYRAZOL-3-YL)OXY-2-ALKOXY ALKYL ACIDS AND THEIR DERIVATIVES, THEIR SALTS AND THEIR USE AS HERBICIDAL AGENTS” (Bayer AKtiengesellschaft, priority 2021, published 2024).

Columns and labels:
SETVI = assay: Post-emergence herbicidal effect, greenhouse pot test; type: in vivo, Setaria viridis
Summary of the method: (§1)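 Weeds sown in sandy loam, greenhouse-grown 2–3 weeks, then sprayed at one-leaf stage with WP or EC formulations in water plus 0.5% additive at 600 l/ha. Rates 20 to 320 g/ha. Visual rating after about 3 weeks versus untreated controls (100% = plants dead, 0% = like control).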

POLCO = assay: as above; type: in vivo, Fallopia convolvulus; details: for pest or weed control at 320 g/ha: Fallopia convolvulus, 504 h, read-out: Post-emergence effect against POLCO in %
Summary of the method: as §1

TRZAS = assay: Post-emergence herbicidal effect and crop plant compatibility, greenhouse pot test; type: in vivo, Triticum aestivum; details: 20 g/ha, one-leaf stage, rated visually after about 3 weeks vs untreated controls; for percent crop injury (phytotoxicity) to wheat, post-emergence at 20 g/ha: Triticum aestivum, 504 h, read-out: Post-emergence effect at 20 g/ha against TRZAS in %
Summary of the method: (§2)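 Greenhouse pot test: weeds and crops sown in sandy loam, sprayed post-emergence at one-leaf stage (2–3 weeks after sowing) with WP or EC formulations plus 0.5% additive at 600 l/ha water, rates 20–320 g/ha. Visual rating about 3 weeks later versus untreated controls (100% = dead, 0% = as control).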

VERPE = assay: Post-emergence herbicidal effect, greenhouse pot test; type: in vivo, Veronica persica; details: for pest or weed control at 80 g/ha / pest or weed control at 320 g/ha: Veronica persica, 504 h, read-out: Post-emergence effect against VERPE in %
Summary of the method: as §1

VIOTR = assay: as above; type: in vivo, Viola tricolor
Summary of the method: as §1

ABUTH = assay: as above; type: in vivo, Abutilon theophrasti; details: visual rating about 3 weeks after treatment; for pest or weed control at 80 g/ha / pest or weed control at 320 g/ha: Abutilon theophrasti, 504 h, read-out: Post-emergence effect against ABUTH
Summary of the method: as §1

MATIN = assay: as above; type: in vivo, Tripleurospermum inodorum; details: for pest or weed control at 80 g/ha / pest or weed control at 320 g/ha: Tripleurospermum inodorum, 504 h, read-out: Post-emergence effect against MATIN in %
Summary of the method: as §1

LOLRI = assay: as above; type: in vivo, Lolium rigidum; details: for pest or weed control at 320 g/ha: Lolium rigidum, 504 h, read-out: Post-emergence effect against LOLRI in %
Summary of the method: as §1

ALOMY = assay: as above; type: in vivo, Alopecurus myosuroides; details: 320 g/ha, visual rating about 3 weeks after treatment
Summary of the method: as §1

ECHCG = assay: as above; type: in vivo, Echinochloa crus-galli; details: for pest or weed control at 80 g/ha / pest or weed control at 320 g/ha: Echinochloa crus-galli, 504 h, read-out: Post-emergence effect against ECHCG in %
Summary of the method: as §1

AMARE = assay: as above; type: in vivo, Amaranthus retroflexus; details: visual rating about 3 weeks after treatment
Summary of the method: as §1

DIGSA = assay: as above; type: in vivo, Digitaria sanguinalis; details: 320 g/ha, visual rating about 3 weeks after treatment; for pest or weed control at 320 g/ha: Digitaria sanguinalis, 504 h, read-out: Post-emergence effect against DIGSA
Summary of the method: as §1

AVEFA = assay: as above; type: in vivo, Avena fatua; details: visual rating about 3 weeks after treatment; for pest or weed control at 320 g/ha: Avena fatua, 504 h, read-out: Post-emergence effect against AVEFA
Summary of the method: as §1

PHBPU = assay: as above; type: in vivo, Ipomoea purpurea
Summary of the method: as §1

ZEAMX = assay: Post-emergence herbicidal effect and crop plant compatibility, greenhouse pot test; type: in vivo, Zea mays; details: Zea mays, 504 h, 20 g/ha, one-leaf stage, rated visually after about 3 weeks vs untreated controls, read-out: Post-emergence effect at 20 g/ha against ZEAMX in %
Summary of the method: as §2

[1] = Setaria viridis, 504 h, 320 g/ha, read-out: Post-emergence effect against SETVI in %
[2] = Viola tricolor, 504 h, 80 g/ha, read-out: Post-emergence effect against VIOTR in %
[3] = Viola tricolor, 504 h, 320 g/ha, read-out: Post-emergence effect against VIOTR in %
[4] = Ipomoea purpurea, 504 h, 320 g/ha, read-out: Post-emergence effect against PHBPU in %

`COC(=O)CCOC(=O)C(OC)Oc1nn(-c2cc(F)ccc2F)c(-c2cncc(F)c2)c1C1CC1` (single isomer, unassigned) [Example I-78] was tested, and the “Post-emergence effect against SETVI in %” value (SETVI; 80 g/ha) was 90%, the “Post-emergence effect against SETVI in %” value (SETVI; 320 g/ha) was 90% and the “Post-emergence effect against POLCO in %” value (POLCO; 80 g/ha) was 90%. For the same compound, the “Post-emergence effect against POLCO in %” value (POLCO; 320 g/ha) was 90%, the “Post-emergence effect at 20 g/ha against TRZAS in %” value (TRZAS) was 0% and the “Post-emergence effect against VERPE in %” value (VERPE; 20 g/ha) was 80%. For the same compound, the “Post-emergence effect against VERPE in %” value (VERPE; 80 g/ha) was 90%, the “Post-emergence effect against VERPE in %” value (VERPE; 320 g/ha) was 90% and the “Post-emergence effect against VIOTR in %” value (VIOTR; 20 g/ha) was 80%. The “Post-emergence effect against VIOTR in %” value (VIOTR; 80 g/ha) was 90%, the “Post-emergence effect against VIOTR in %” value (VIOTR; 320 g/ha) was 90% and the “Post-emergence effect against ABUTH” value (ABUTH; 20 g/ha) was 80%. The “Post-emergence effect against ABUTH” value (ABUTH; 80 g/ha) was 80%, the “Post-emergence effect against ABUTH” value (ABUTH; 320 g/ha) was 80% and the “Post-emergence effect against MATIN in %” value (MATIN; 20 g/ha) was 80%. The “Post-emergence effect against MATIN in %” value (MATIN; 80 g/ha) was 90%, the “Post-emergence effect against MATIN in %” value (MATIN; 320 g/ha) was 90% and the “Post-emergence effect against LOLRI in %” value (LOLRI; 80 g/ha) was 90%. For the same compound, the “Post-emergence effect against LOLRI in %” value (LOLRI; 320 g/ha) was 90%, the “Post-emergence effect against ALOMY” value (ALOMY) was 90% and the “Post-emergence effect against ECHCG” value (ECHCG; 20 g/ha, visual rating about 3 weeks after treatment) was 90%. For the same compound, the “Post-emergence effect against ECHCG in %” value (ECHCG; 80 g/ha) was 90%, the “Post-emergence effect against ECHCG in %” value (ECHCG; 320 g/ha) was 90% and the “Post-emergence effect against AMARE” value (AMARE; 80 g/ha) was 90%. The “Post-emergence effect against AMARE” value (AMARE; 320 g/ha) was 90%, the “Post-emergence effect against DIGSA” value (DIGSA) was 80% and the “Post-emergence effect against AVEFA” value (AVEFA; 80 g/ha) was 90%. For the same compound, the “Post-emergence effect against AVEFA” value (AVEFA; 320 g/ha) was 90%, the “Post-emergence effect against PHBPU in %” value (PHBPU; 20 g/ha) was 80% and the “Post-emergence effect against PHBPU in %” value (PHBPU; 80 g/ha) was 90%. For the same compound, the “Post-emergence effect against PHBPU in %” value (PHBPU; 320 g/ha) was 90%.
`COC(Oc1nn(-c2cc(F)ccc2F)c(-c2cncc(F)c2)c1Br)C(=O)O` (stereo not drawn) [Example I-32] gave a pest or weed control at 320 g/ha (SETVI; [1]) of 90%, a pest or weed control at 320 g/ha (POLCO; 320 g/ha) of 80% and a percent crop injury (phytotoxicity) to wheat, post-emergence at 20 g/ha (TRZAS) of 10%. It also gave a pest or weed control at 80 g/ha (VERPE; 80 g/ha) of 90%, a pest or weed control at 320 g/ha (VERPE; 320 g/ha) of 90% and a plant injury at 20 g/ha (ZEAMX) of 10%. The pest or weed control at 80 g/ha (VIOTR; [2]) was 90%, the pest or weed control at 320 g/ha (VIOTR; [3]) was 90% and the pest or weed control at 80 g/ha (ABUTH; 80 g/ha) was 80%. For the same compound, the pest or weed control at 320 g/ha (ABUTH; 320 g/ha) was 90%, the pest or weed control at 80 g/ha (MATIN; 80 g/ha) was 90% and the pest or weed control at 320 g/ha (MATIN; 320 g/ha) was 90%. For the same compound, the pest or weed control at 320 g/ha (LOLRI; 320 g/ha) was 90%, the pest or weed control at 80 g/ha (ECHCG; 80 g/ha) was 90% and the pest or weed control at 320 g/ha (ECHCG; 320 g/ha) was 90%. It also gave a pest or weed control at 320 g/ha (AMARE; Amaranthus retroflexus, 504 h, 320 g/ha, read-out: Post-emergence effect against AMARE) of 80%, a pest or weed control at 320 g/ha (DIGSA) of 90% and a pest or weed control at 320 g/ha (AVEFA; 320 g/ha) of 90%. The pest or weed control at 320 g/ha (PHBPU; [4]) was 90%.
Compound `CCOC(=O)C(OC)Oc1nn(-c2cc(F)ccc2F)c(-c2cncc(F)c2)c1Br` (stereo not drawn) [Example I-33] has a pest or weed control at 80 g/ha (SETVI; Setaria viridis, 504 h, 80 g/ha, read-out: Post-emergence effect against SETVI in %) of 90%, a pest or weed control at 320 g/ha (SETVI; [1]) of 90% and a pest or weed control at 320 g/ha (POLCO; 320 g/ha) of 80%. For the same compound, the percent crop injury (phytotoxicity) to wheat, post-emergence at 20 g/ha (TRZAS) was 20%, the pest or weed control at 80 g/ha (VERPE; 80 g/ha) was 80% and the pest or weed control at 320 g/ha (VERPE; 320 g/ha) was 90%. The pest or weed control at 20 g/ha (VIOTR; Viola tricolor, 504 h, 20 g/ha, read-out: Post-emergence effect against VIOTR in %) was 80%, the pest or weed control at 80 g/ha (VIOTR; [2]) was 80% and the pest or weed control at 320 g/ha (VIOTR; [3]) was 90%. It also gave a pest or weed control at 80 g/ha (ABUTH; 80 g/ha) of 90%, a pest or weed control at 320 g/ha (ABUTH; 320 g/ha) of 90% and a pest or weed control at 80 g/ha (MATIN; 80 g/ha) of 80%. For the same compound, the pest or weed control at 320 g/ha (MATIN; 320 g/ha) was 90%, the pest or weed control at 320 g/ha (LOLRI; 320 g/ha) was 90% and the pest or weed control at 320 g/ha (ALOMY; Alopecurus myosuroides, 504 h, read-out: Post-emergence effect against ALOMY) was 90%. It also gave a pest or weed control at 80 g/ha (ECHCG; 80 g/ha) of 80%, a pest or weed control at 320 g/ha (ECHCG; 320 g/ha) of 90% and a pest or weed control at 320 g/ha (DIGSA) of 80%. For the same compound, the pest or weed control at 320 g/ha (AVEFA; 320 g/ha) was 90%, the pest or weed control at 20 g/ha (PHBPU; Ipomoea purpurea, 504 h, 20 g/ha, read-out: Post-emergence effect against PHBPU in %) was 80% and the pest or weed control at 80 g/ha (PHBPU; Ipomoea purpurea, 504 h, 80 g/ha, read-out: Post-emergence effect against PHBPU in %) was 90%. For the same compound, the pest or weed control at 320 g/ha (PHBPU; [4]) was 90%.
